This note sets out measurements from US9212130B2, “Heterocyclic derivative and pharmaceutical composition comprising the same” (SHIONOGI & CO., LTD., priority 2010, dated 2015).

For series [1], the target named is T1, CYP3A4 (Homo sapiens (Human), UniProt P08684). The series can be described thus: CYP inhibition test, terfenedine hydroxylation. The settings on record: pooled human hepatic microsome; 1 μmol/L terfenedine; given as 'five kinds'. The format is in vitro ADME. As to the method:
(§1) Using commercially available pooled human hepatic microsome, and employing, as markers, 7-ethoxyresorufin O-deethylation (CYP1A2), tolbutamide methyl-hydroxylation (CYP2C9), mephenyloin 4′-hydroxylation (CYP2C19), dextromethorphan O-demethylation (CYP2D6), and terfenedine hydroxylation as typical substrate metabolism reactions of human main five ([…] enzyme forms (CYP1A2, 2C9, 2C19, 2D6, 3A4), an inhibitory degree of each metabolite production amount by a test compound was assessed.
(§2) The reaction conditions were as follows: substrate, 0.5 μmol/L ethoxyresorufin (CYP1A2), 100 μmol/L tolbutamide (CYP2C9), 50 μmol/L S-mephenitoin (CYP2C19), 5 μmol/L dextromethorphan (CYP2D6), 1 μmol/L terfenedine (CYP3A4); reaction time, 15 minutes; reaction temperature, 37° C.; enzyme, pooled human hepatic microsome 0.2 mg protein/mL; test drug concentration, 1.0. 5.0, 10, 20 μmol/L (four points).
(§3) Each five kinds of substrates, human hepatic microsome, or a test drug in 50 mmol/L Hepes buffer as a reaction solution was added to a 96-well plate at the composition as described above. NADPH, as a cofactor was added to initiate metabolism reactions as markers and, after the incubation at 37° C. for 15 minutes, a methanol/acetonitrile=1/1 (v/v) solution was added to stop the reaction. After the centrifugation at 3000 rpm for 15 minutes, resorufin (CYP1A2 metabolite) in the supernatant was quantified by a fluorescent multilabel counter and tributamide hydroxide (CYP2CP metabolite), mephenyloin 4′ hydroxide (CYP2C19 metabolite), […], and terfenadine alcohol (CYP3A4 metabolite) were quantified by LC/MS/MS.
(§4) Addition of only DMSO being a solvent dissolving a drug to a reaction system was adopted as a control (100%), remaining activity (%) was calculated at each concentration of a test drug added as the solution and IC50 was calculated by reverse presumption by a logistic model using a concentration and an inhibition rate.

The nature of series [2]: Metabolism stability test (pooled human hepatic microsomes). It counts as in vitro ADME. The settings on record: human liver microsomes 0.5 mg protein/mL; 37° C., 30 minutes; 1 mmol/L NADPH; compound concentration 0.5 μmol/L. As to the method: Using commercially available pooled human hepatic microsomes, a test compound was reacted for a constant time, a remaining rate was calculated by comparing a reacted sample and an unreacted sample, thereby, a degree of metabolism in liver was assessed.
A reaction was performed (oxidative reaction) at 37° C. for 0 minute or 30 minutes in the presence of 1 mmol/L NADPH in 0.2 mL of a buffer (50 mmol/L tris-HCl pH 7.4, 150 mmol/L potassium chloride, 10 mmol/L magnesium chloride) containing 0.5 mg protein/mL of human liver microsomes. After the reaction, 50 μL of the reaction solution was added to 100 μL of a methanol/acetonitrile 1/1 (v/v), mixed and centrifuged at 3000 rpm for 15 minutes. The test compound in the supernatant was quantified by LC/MS/MS, and a remaining amount of the test compound after the reaction was calculated, letting a compound amount at 0 minute reaction time to be 100%.
A general note: Liver microsomes are a subcellular fraction often used to study metabolism.

The target of the next series is CYP2D6 (Homo sapiens (Human), UniProt P10635). The series can be described thus: CYP inhibition test, dextromethorphan O-demethylation. It counts as in vitro ADME. As to conditions: pooled human hepatic microsome; 5 μmol/L dextromethorphan; given as 'five kinds'. As to the method: as §1, §2, §3, §4
Sequence of CYP2D6 (P10635 whole entry): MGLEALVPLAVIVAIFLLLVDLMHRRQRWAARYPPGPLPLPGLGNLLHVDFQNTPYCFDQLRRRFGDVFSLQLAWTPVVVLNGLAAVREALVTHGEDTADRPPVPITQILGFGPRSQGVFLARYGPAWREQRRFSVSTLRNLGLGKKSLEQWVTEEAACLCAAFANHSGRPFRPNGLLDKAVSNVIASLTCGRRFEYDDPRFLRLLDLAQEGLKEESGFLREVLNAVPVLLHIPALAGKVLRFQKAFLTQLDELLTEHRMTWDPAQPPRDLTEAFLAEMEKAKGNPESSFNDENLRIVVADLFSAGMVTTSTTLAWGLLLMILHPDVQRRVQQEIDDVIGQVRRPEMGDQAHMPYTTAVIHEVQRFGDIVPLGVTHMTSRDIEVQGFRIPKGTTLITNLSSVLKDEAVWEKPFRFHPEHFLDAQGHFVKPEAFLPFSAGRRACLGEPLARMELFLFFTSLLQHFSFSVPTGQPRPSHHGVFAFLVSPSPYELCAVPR
Series [3] has as its target T1, CYP3A4. The series can be described thus: CYP3A4 fluorescent MBI test. It counts as in vitro ADME. As to conditions: pre-reaction time 0 or 30 minutes; substrate 7-BFC; CYP3A4 expressed in Escherichia coli. The procedure:
The CYP3A4 fluorescent MBI test is a test of investigating enhancement of CYP3A4 inhibition of a compound by a metabolism reaction, and the test is performed using, as CYP3A4 enzyme expressed in Escherichia coli and employing, as an index, a reaction in which 7-benzyloxytrifluoromethylchmarin (BFC) is debenzylated by the CYP3A4 enzyme to produce a metabolite, 7-hydroxytrifluoromethylchmarin (HFC) emitting fluorescent light.
The reaction conditions were as follows: substrate, 5.6 μmol/L 7-BFC; pre-reaction time, 0 or 30 minutes; reaction time, 15 minutes; reaction temperature, 25° C.
An enzyme in a K-Pi buffer (pH 7.4) and a test drug solution as a pre-reaction solution were added to a 96-well plate at the composition of the pre-reaction, a part of it was transferred to another 96-well plate so that it was 1/10 diluted by a substrate in a K-Pi buffer, NADPH as a co-factor was added to initiate a reaction as an index (without preincubation) and, after a predetermined time of a reaction, acetonitrile: 0.5 mol/L Tris (trishydroxyaminomethane)=4:1 was added to stop the reaction. In addition, NADPH was added to a remaining preincubation solution to initiate a preincubation (with preincubation) and, after a predetermined time of a preincubation, a part was transferred to another plate so that it was 1/10 diluted with a substrate and a K-Pi buffer to initiate a reaction as an index, After a predetermined time of a reaction, acetonitrile: 0.5 mol/L Tris (trishydroxyaminomethane)=4:1 was added to stop the reaction. For the plate on which each index reaction had been performed, a fluorescent value of 7-HFC which is a metabolite was measured with a fluorescent plate reader. (Ex=420 nm, Em=535 nm).
Addition of only DMSO which is a solvent dissolving a drug to a reaction system was adopted as a control (100%), remaining activity (%) was calculated at each concentration of a test drug added as the solution, and IC50 was calculated by reverse-presumption by a logistic model using a concentration and an inhibition rate. When a difference between IC50 values is 5 or more, this was defined as (+) and, when the difference is 3 μmol/L or less, this was defined as (−).

Another series can be described thus: Solubility test. It counts as physicochemical. The settings on record: artificial intestinal juice (phosphate buffer) with 1% DMSO, 25 °C, other biorelevant, kinetic from dmso stock, artificial intestinal juice in pH 8.8, 25 degrees Celsius for 16 hours. The procedure:
The solubility of a compound was determined under a condition in which 1% DMSO was added. 10 mmol/L compound solution was prepared using DMSO, and then 6 μL of the compound solution was added to 594 μL of artificial intestinal juice in […] (to 250 mL of 0.2 mol/L potassium dihydrogen phosphate reagent solution was added 118 mL of 0.2 mol/L NaOH reagent solution and water to provide a final volume of 1000 mL). After standing at 25 degrees Celsius for 16 hours, the mixed solution was filtrated with suction. The filtrate was diluted twice with methanol/water (1/1) and then a concentration in the filtration was measured with HPLC or LC/MS/MS by the absolute calibration method.

The next series addresses CYP2C9 (Homo sapiens (Human), UniProt P11712). The series can be described thus: CYP inhibition test, tolbutamide methyl-hydroxylation. It counts as in vitro ADME. The settings on record: pooled human hepatic microsome; 100 μmol/L tolbutamide; given as 'five kinds'. As to the method: as §1, §2, §3, §4

Bounds are passed on as bounds.

T1 sequence (P08684 whole entry): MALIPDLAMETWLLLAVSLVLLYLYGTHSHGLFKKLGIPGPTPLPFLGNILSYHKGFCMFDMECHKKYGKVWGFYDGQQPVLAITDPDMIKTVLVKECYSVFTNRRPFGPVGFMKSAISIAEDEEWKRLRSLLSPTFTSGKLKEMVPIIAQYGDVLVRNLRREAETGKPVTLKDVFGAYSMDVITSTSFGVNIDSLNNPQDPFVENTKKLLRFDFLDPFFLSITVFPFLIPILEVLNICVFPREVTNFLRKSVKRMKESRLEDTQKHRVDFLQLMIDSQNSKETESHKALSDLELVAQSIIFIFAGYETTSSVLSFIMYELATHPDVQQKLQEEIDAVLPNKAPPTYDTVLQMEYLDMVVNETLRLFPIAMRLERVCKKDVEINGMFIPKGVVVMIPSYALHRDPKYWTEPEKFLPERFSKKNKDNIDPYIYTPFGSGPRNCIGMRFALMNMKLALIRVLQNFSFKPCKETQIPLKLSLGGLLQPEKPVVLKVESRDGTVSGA
Sequence of CYP2C9 (P11712 whole entry): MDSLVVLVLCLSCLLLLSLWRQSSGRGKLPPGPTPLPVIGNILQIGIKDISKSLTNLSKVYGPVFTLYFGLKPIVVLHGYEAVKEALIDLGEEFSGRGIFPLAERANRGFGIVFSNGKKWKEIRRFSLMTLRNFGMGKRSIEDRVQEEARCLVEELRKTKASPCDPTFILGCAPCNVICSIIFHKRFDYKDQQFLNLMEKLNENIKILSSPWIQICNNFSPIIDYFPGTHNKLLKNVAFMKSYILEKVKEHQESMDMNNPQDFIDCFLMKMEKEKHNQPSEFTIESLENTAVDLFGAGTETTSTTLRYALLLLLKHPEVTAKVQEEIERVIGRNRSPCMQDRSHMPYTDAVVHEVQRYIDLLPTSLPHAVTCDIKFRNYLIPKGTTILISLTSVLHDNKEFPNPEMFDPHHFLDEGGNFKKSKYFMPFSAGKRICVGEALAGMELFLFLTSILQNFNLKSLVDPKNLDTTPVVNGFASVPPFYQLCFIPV

For orientation: IC50 means the concentration that gives 50% inhibition. Read a high IC50 as a need for much substance. By solubility is commonly meant the concentration that dissolves in the medium under given conditions. For `CC(C)Oc1ccc(Nc2cc(=O)n(C[C@H](C)C(=O)O)c(=O)n2Cc2ccc(Cl)cc2)cc1Cl` [I-100], the IC50 on CYP3A4 [1], against CYP2D6 and at CYP2C9 was > 20 µM throughout. In addition, in series [2], the remaining rate was determined as 101%. Moreover, on CYP3A4 [3], the IC50 difference is < 3 µM. The solubility at 16 h in the series “Solubility test” was > 50 µM.
